Columns and labels:
[1] = Stability in simulated gastric fluid; format: in vitro ADME; conditions: 100 μM, 2 hours at 37° C., percent of the peak area at time zero
Experimental: (§1) Simulated gastric and intestinal fluids containing pepsin and pancreatin respectively were prepared according to the U.S. Pharmacopoeia USP291 procedure (www.pharmacopeia.cn/v29240/usp29nf24s0_ris1s126.html). Compounds (final concentration 100 μM) were incubated in duplicate in the appropriate fluid for 2 hours at 37° C. The samples were quenched with 200 μl cold acetonitrile, vortexed for 30 seconds and then centrifuged at 16,100 g for 10 min. The supernatants were analyzed by HPLC on a C-18 column with UV detection at 252 nm. The time 0 samples were prepared by adding SGF or SIF fluid to the quenching solvent followed by the test compound. Stability of the compounds was determined by peak area of the test compounds after incubation and calculated as percent of the peak area observed at time zero.

[2] = Stability in fresh human whole blood; format: in vitro ADME; conditions: 0.5 μM, percent unchanged test compound
Experimental: (§2) Stability of compounds were determined in fresh human whole blood with K2EDTA as the anticoagulant (stored refrigerated at 2-8° C. and used within 7 days of receipt). The experiment was conducted with three replicates for each time point. Whole blood, pre-incubated at 37° C. for 10-15 minutes, was fortified with a solution of test compound for a final concentration of 0.5 μM and mixed for 30 sec. At intervals (0, 0.5, 1 and 2 hr), three 50 μL aliquots were combined with 200 μL (each) of an ice-cold solution of the internal standard (carbutamide 500 ng/mL in acetonitrile). The samples were vortexed for 30 sec and then centrifuged at 16,100 g for 5 min. The supernatant was analyzed by LC-MS/MS. The MS peak area ratio of the test compounds versus the internal standard was calculated and percent unchanged test compound was calculated for each time point using this ratio.

[3] = Stability in simulated intestinal fluid; format: in vitro ADME; conditions: 100 μM, 2 hours at 37° C., percent of the peak area at time zero
Experimental: as §1

fresh human hepatocytes = assay: Release of active metabolite in fresh human hepatocytes; format: in vitro ADME; conditions: 10 μM compound; for FHH TP Cmax: fresh human hepatocytes; for FHH TP AUC: fresh human hepatocytes, 6, 24 and 48 hours
In short: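 Overnight-acclimatized hepatocytes (0.8 million cells/well human, 0.5 million mouse) incubated at 37 °C with 10 μM test compound (0.1% DMSO). Sampled at 6, 24, 48 h (human) or 1, 4, 8, 12, 24 h (mouse); cells washed, extracted in cold 70% methanol, intracellular content quantified by LC-MS/MS with internal standard.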

in vitro = conditions: human, HCV Replicon CC50, Zluc cells, CellTiter-Blue
HCV genotype 1b replicon = assay: HCV Replicon Assay; format: cell-based; conditions: Hepatitis C virus, 72 h, Zluc cells (Huh-7-derived, HCV genotype 1b replicon, luciferase reporter), 72 hours; read-out: HCV Replicon EC50
In short: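 Zluc Huh-7 cells with HCV genotype 1b replicon and luciferase reporter treated with 5-fold dilutions (100 μM to 0.0000512 μM final) in duplicate, or at 1 and 10 μM. Luminescence read with ONE-glo; EC50 from dose-response fits, or % inhibition at the fixed concentrations.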

Huh-7 cells = assay: Release of active metabolite in Huh-7 cells; format: in vitro ADME, human; conditions: 10 μM compound
Experimental: Huh-7 cells were plated in 1 mL culture medium (DMEM, containing glucose, L-glutamine and sodium pyruvate, 10% FBS, 100 IU/mL penicillin, 100 μg/mL streptomycin, 2 mM GlutaMAX, 1% MEM non-essential amino acids) at the concentration 0.8, 0.4 and 0.2 million cells per well on 6 well plates for 24, 48 and 72 hr treatment, respectively. Plated cells were incubated overnight at 37° C. in an incubator.
The following morning compounds was diluted to 20 μM from a stock solution in DMSO in fresh culture medium pre-warmed to 37° C. and 1 mL of the solution/well was added to cells. A final medium volume per well was 2.0 mL, Compound concentration in well was 10 μM and final DMSO concentration was 0.1%.
After 24, 48 or 72 hr, the medium was carefully removed and cell monolayers were washed twice with 2 mL ice-cold PBS per well. Following the last wash, all PBS was carefully removed and 1.0 mL of extraction solution (ice-cold 70% methanol) added. The plate was tightly covered with Parafilm, plastic plate cover and Parafilm again and an intracellular content was extracted at −20° C. for 24 hr.
After 24 hr extracts were transferred into polypropylene microfuge tubes and dried on a refrigerated centrivap concentrator. Dry residues were reconstituted in 250 μL of HPLC-grade water and centrifuged at 16,000×g for 10 min. Aliquots (100 μL each) of the supernatants were transferred into a 96 well plate and internal standard (4 ng/mL final concentration) was added as the internal standard (IS) for LC-MS/MS analysis.

mouse hepatocytes = assay: Release of active metabolite in mouse hepatocytes; format: in vitro ADME; conditions: 10 μM compound
Experimental: Plates of fresh human and mouse hepatocytes were obtained on ice. The medium was removed and replaced with hepatocyte culture medium (William's E supplemented with penicillin-streptomycin, 1% L-glutamine, 1% insulin-transferrin-selenium and 0.1 μM Dexamethasone (Invitrogen) or with Invitro GRO HI medium complemented with Torpedo antibiotics (Celsis)). Cells were left overnight in an incubator at 37° C. to acclimatize to culture and the medium.
Hepatocyte incubations were conducted at a final volume of 0.5 mL hepatocyte culture medium/well (0.8 million cells/well for human and 0.5 million cells/well for mouse; 12 well plate no overlay, collagen coat). Culture medium from overnight incubation of cells was removed and replaced with fresh medium, pre-warmed to 37° C., containing 10 μM of test compound from a stock solution in DMSO (final DMSO concentration was 0.1%). At each specific time point, incubation medium was removed and cell monolayers were carefully washed two times with ice-cold PBS. Following the last wash, all PBS was carefully removed and 1.0 mL of extraction solution (ice-cold 70% methanol/30% water) added. Cells were scraped off and suspended in the extraction solution, transferred to 2 mL polypropylene microfuge tubes and intracellular contents extracted overnight at −20° C.
After the overnight treatment the cellular extracts were prepared by centrifugation at 16,000×g for 10 min to remove cellular debris. The remaining sample was then dried using a refrigerated centrivap concentrator. Dry extracts were reconstituted in 1000 μL of HPLC-grade water and centrifuged at 16,000×g for 10 min. Aliquots (100 μL each) of the supernatant were transferred into a 96 well plate and internal standard (4 ng/mL final concentration) was added as the internal standard (IS) for LC-MS/MS analysis.
The incubation time points were 6, 24 and 48 hours for human hepatocytes and 1, 4, 8, 12 and 24 hours for mouse hepatocytes.

[4] = Liver pharmacokinetics following a single oral dose in CD-1 mice; format: in vivo; conditions: single oral dose 25 mg/kg in PEG 200, CD-1 male mice; given at 1 μmol/kg; 25 mg/kg
Experimental: (§3) A single oral dose of test compound at 25 mg/kg in PEG 200 (dose volume 5 mL/kg) was administered to nine CD-1 male mice. Five untreated animals were used for the collection of control plasma and liver. Terminal plasma and liver samples were collected from three animals per time point at 4, 12 and 24 hours post dose. Liver specimens were collected from all animals immediately after the incision. Freezing forceps stored in liquid nitrogen were used to freeze the liver before excision.
Liver samples were analyzed for the active species 2′-methylguanosine triphosphate (2′-MeGTP) by LC-MS/MS. 2′-MeGTP levels were assayed by homogenizing (on ice) a known weight of mouse liver with 4× volume of 0.95 M trichloroacetic acid (TCA). Internal standard solution was added to the homogenate followed by neutralization with 20% ammonium hydroxide solution and addition of 500 μL 1% formic acid. The tissue samples were extracted by weak anion exchange solid phase extraction (SPE). Post extraction, the eluates were evaporated under nitrogen, followed by reconstitution before injection onto the LC-MS/MS system. The samples were chromatographed on a Luna NH2 column using a gradient system of ammonium acetate (1 mM to 20 mM and pH 8.0 to pH 10.0) in water and acetonitrile (70:30). The analyte was detected and quantified by tandem mass spectrometry in positive ion mode on an API4000 equipped with a Turbo Ionspray® interface. The calibration range was 10 to 10000 pmol/mL in mouse liver homogenate (50 to 50000 pmol/g of mouse liver).

Stability in mouse blood = format: in vitro ADME; conditions: on ice, percent unchanged test compound
Experimental: as §2
The stability in mouse blood was determined on ice at 0, 0.5 and 1 hr as herein.

[5] = Plasma pharmacokinetics following a single oral dose in CD-1 mice; format: in vivo; conditions: single oral dose 25 mg/kg in PEG 200, CD-1 male mice; given at 1 μmol/kg; 25 mg/kg
Experimental: as §3
Plasma samples were analyzed for 2′-methylguanosine (2′-MeG) by LC-MS/MS. The internal standard (IS) was 2′-MeG-D3. For protein precipitation and extraction, each plasma sample (50 μL) was treated with 500 μL of 0.2% formic acid in acetonitrile and 20 μL of the internal standard working solution. After vortexing and centrifugation, 500 μL of the sample extracts were transferred to a new plate, dried under N2 at ˜28° C. and reconstituted with 75 μL of 0.2% FA in water. The extracts were chromatographed on an Aquasil C18 column using a gradient system of 0.2% formic acid in water and acetonitrile. The analytes were detected and quantified by tandem mass spectrometry in positive ion mode on an MDS Sciex API5000 equipped with a Turbo Ionspray® interface. The calibration range was 0.500 (LLOQ) to 200 ng/mL in mouse plasma.

Row | Structure (SMILES) | Stability SGF [1] [%] | Stability WB_Human (37° C.; 2 hr) [2] [%] | Stability SIF [3] [%] | FHH TP Cmax (fresh human hepatocytes) [pmol/mill cells] | FHH TP AUC (fresh human hepatocytes) [pmol · hr/mill cells] | CC50 (in vitro) [µM] | EC50 (HCV genotype 1b replicon) [µM] | Huh-7 TP (24 hr) (Huh-7 cells; 24 hr) | Huh-7 TP (48 hr) (Huh-7 cells; 48 hr) | Huh-7 TP (72 hr) (Huh-7 cells; 72 hr) | Huh-7 TP AUC (Huh-7 cells; Huh-7 cells) [pmol/mill cells] | MsH Cmax (mouse hepatocytes; mouse hepatocytes) [pmol/mill cells] | MsH AUC (mouse hepatocytes; mouse hepatocytes, 1, 4, 8, 12 and 24 hours) [pmol · hr/mill cells] | Ms Liver 2′-MeGTP AUC [4] [pmol · hr/g at 1 μmol/kg] | Stability WB_Mouse (ice; 1 hr) (Stability in mouse blood) [%] | Ms Plasma 2′-MeG AUC [5] [pmol · hr/mL at 1 μmol/kg] | Ms Plasma 2′-MeG Cmax [5] [pmol/mL at 1 μmol/kg]
1 | CCOc1nc(N)nc2c1ncn2[C@@H]1O[C@@H]2COP(=O)(OCCSSC(C)(C)C)O[C@H]2[C@@]1(C)F (single isomer, unassigned) [Compound 24 Diastereomer 1] | 87 | 91 | 90 | 154 | 3399 | < 50 | < 0.25 | – | – | – | – | – | – | – | – | – | –
2 | CCOC(=O)CCCOP1(=O)OC[C@H]2O[C@@H](n3cnc4c(OC)nc(N)nc43)[C@](C)(O)[C@@H]2O1 (single isomer, unassigned; diastereomer 1) [Compound 25 Diastereomer 1] | – | – | – | 1137 | 2245 | – | – | 25 | 28 | 36 | 1697 | – | – | – | – | – | –
3 | CCOc1nc(N)nc2c1ncn2[C@@H]1O[C@@H]2COP(=O)(OCCSC(=O)C(C)(C)CO)O[C@H]2[C@@]1(C)F (single isomer, unassigned) [Compound 5 Diastereomer 1] | 108 | 82 | 86 | 204 | 7185 | > 50 | < 0.25 | – | – | – | – | 374 | 9866 | 1200 | 99 | 97 | 8.1
